Reference: patent US20050070006A1 (priority 2001, published 2005)
In brackets after ≈: the same amount, converted by molar mass. Like-named read-outs stand apart in the source and are kept apart here.

Key:
[1] = antibiotic activity; Olivia et al. 1992; cited from earlier work
[2] = tested on: strain 4S (frameshift mutation); conditions: Bromocresol Red colour change
[3] = tested on: strain 6S (frameshift mutation); experiment: Long-term mutation test (selection phase 16 hours), luminometric β-galactosidase reporter; conditions: selection 16 hours
[4] = tested on: strain 4S (frameshift mutation); experiment: as above; conditions: selection 16 hours

Molecule: CN(C)[C@@H]1C(=O)C(C(N)=O)=C(O)[C@@]2(O)C(=O)C3=C(O)c4c(O)cccc4[C@@](C)(O)[C@H]3C[C@@H]12 [tetracyclin]
- MIC (minimum inhibition concentration) value [1]: 0.5 µg/mL (≈ 1.13 µM)

Molecule: COc1ccc2nc3cc(Cl)ccc3c(NCCCNCCCl)c2c1.Cl.Cl [ICR-191, 2-Methoxy-6-chloro-9-(3-(2-chloro-ethyl)aminopropylamino)acridine, dihydrochloride]
- % of positive wells ([2]; 0.03 μg/ml): 0%
- Mutation induction (factor) ([2]; 0.03 μg/ml): 0 factor
- % of positive wells ([2]; 0.06 μg/ml): 6.3%
- Mutation induction (factor) ([2]; 0.06 μg/ml): 2 factor
- % of positive wells ([2]; 0.12 μg/ml): 12.5%
- Mutation induction (factor) ([2]; 0.12 μg/ml): 4 factor
- % of positive wells ([2]; 0.25 μg/ml): 25%
- Mutation induction (factor) ([2]; 0.25 μg/ml): 8.1 factor
- % of positive wells ([2]; 0.5 μg/ml): 37.5%
- Mutation induction (factor) ([2]; 0.5 μg/ml): 12.1 factor
- % of positive wells ([2]; 1 μg/ml): 75%
- Mutation induction (factor) ([2]; 1 μg/ml): 24.2 factor
- Mutation induction (factor) ([3]; 0.016 μg/ml): 28 factor
- Relative luminescence units (rlu) ([3]; 0.016 μg/ml): 151340 rlu
- Mutation induction (factor) ([3]; 0.031 μg/ml): 57 factor
- Relative luminescence units (rlu) ([3]; 0.031 μg/ml): 307828 rlu
- Mutation induction (factor) ([3]; 0.0625 μg/ml): 86 factor
- Relative luminescence units (rlu) ([3]; 0.0625 μg/ml): 466003 rlu
- Mutation induction (factor) ([3]; 0.125 μg/ml): 127 factor
- Relative luminescence units (rlu) ([3]; 0.125 μg/ml): 685471 rlu
- Mutation induction (factor) ([3]; 0.25 μg/ml): 162 factor
- Relative luminescence units (rlu) ([3]; 0.25 μg/ml): 880208 rlu
- Mutation induction (factor) ([3]; 0.5 μg/ml): 235 factor
- Relative luminescence units (rlu) ([3]; 0.5 μg/ml): 1274327 rlu
- Mutation induction (factor) ([3]; 1 μg/ml): 264 factor
- Relative luminescence units (rlu) ([3]; 1 μg/ml): 1432620 rlu

Molecule: Nitropyrene
- Mutation induction (factor) ([4]; 0.031 μg/ml): 0.8 factor
- Relative luminescence units (rlu) ([4]; 0.031 μg/ml): 4125 rlu
- Mutation induction (factor) ([4]; 0.0625 μg/ml): 19.8 factor
- Relative luminescence units (rlu) ([4]; 0.0625 μg/ml): 105949 rlu
- Mutation induction (factor) ([4]; 0.125 μg/ml): 41 factor
- Relative luminescence units (rlu) ([4]; 0.125 μg/ml): 219636 rlu
- Mutation induction (factor) ([4]; 0.25 μg/ml): 65 factor
- Relative luminescence units (rlu) ([4]; 0.25 μg/ml): 348410 rlu
- Mutation induction (factor) ([4]; 0.5 μg/ml): 177 factor
- Relative luminescence units (rlu) ([4]; 0.5 μg/ml): 950853 rlu
- Mutation induction (factor) ([4]; 1 μg/ml): 103 factor
- Relative luminescence units (rlu) ([4]; 1 μg/ml): 552390 rlu

Molecule: Nitrofluorene
- Mutation induction (factor) ([4]; 0.031 μg/ml): 39 factor
- Relative luminescence units (rlu) ([4]; 0.031 μg/ml): 210703 rlu
- Mutation induction (factor) ([4]; 0.0625 μg/ml): 90 factor
- Relative luminescence units (rlu) ([4]; 0.0625 μg/ml): 480532 rlu
- Mutation induction (factor) ([4]; 0.125 μg/ml): 169 factor
- Relative luminescence units (rlu) ([4]; 0.125 μg/ml): 900022 rlu
- Mutation induction (factor) ([4]; 0.25 μg/ml): 321 factor
- Relative luminescence units (rlu) ([4]; 0.25 μg/ml): 1713083 rlu
- Mutation induction (factor) ([4]; 0.5 μg/ml): 682 factor
- Relative luminescence units (rlu) ([4]; 0.5 μg/ml): 3643737 rlu
- Mutation induction (factor) ([4]; 1 μg/ml): 630 factor
- Relative luminescence units (rlu) ([4]; 1 μg/ml): 3360982 rlu
